Measurements published in patent publication US12612412B2, “Antiviral heterocyclic compounds” (Enanta Pharmaceuticals, Inc., priority 2021, dated 2026).
Read-outs that look alike come from different tables or passages of the source.

How the values were obtained:
[1] = system: recombinant HMPV CAN97-83 containing eGFP (MPV-GFP1); assay: HMPV antiviral assay Method-A (MPV-GFP1 eGFP fluorescence in Vero E6 cells); format: cell-based, Human metapneumovirus (HMPV); settings: human metapneumovirus, Vero C1008, 120 h, read-out: HMPV EC50
Method: HMPV antiviral activity was evaluated using a recombinant version of HMPV CAN97-83 engineered to contain the coding sequence for enhanced green fluorescence protein (eGFP) in the 3′ end of the virus genome (MPV-GFP1, ViraTree). Vero E6 cells ([…]) were seeded at a density of 12,000 cells/100 μL/well into 96-well cell plates one day prior to the assay. On the day of screening, the cell culture medium was aspirated from the wells and cells were washed twice with serum-free Eagle's Modified Essential Medium (EMEM, ATCC #) containing 1% penicillin-streptomycin (Invitrogen) (SF-EMEM). Cell washes were performed by dispensing 100 μL SF-EMEM per well and immediately aspirating the wash medium from the well. Following the second wash step, serum-free OptiMEM (Invitrogen, Cat No.) (SF-OptiMEM) containing 0.5 μg/mL TPCK-Trypsin (VENDOR) and 1% penicillin-streptomycin was added to the cells at 50 μL/well. Compounds were added into the 96-well plates using a JANUS automated liquid handling system (VENDOR). Compounds were initially diluted 1:50 into an intermediate 96-well plate containing SF-OptiMEM prior to transfer to the assay plate (25 μL/well). Each of the test compounds were tested in duplicate wells at final concentrations starting from 8 μM or 2 μM using ½ stepwise dilutions for a total of 8 points. Virus infection was performed by preparing a working stock of MPV-GFP1 at a multiplicity of infection (MOI) equal to 0.05/25 μL and aliquoting 25 μL of virus inoculum to the compound and positive control wells. SF-OptiMEM was added (25 μL/well) to the appropriate wells to serve as a virus-free negative control for the assay. The final DMSO concentration of all wells is 0.5%. Plates were incubated at 32° C., 5% CO2 for 5 days.
After 5 days incubation, eGFP fluorescence intensity was measured at (X) […] wavelength using a Spectramax i3× plate reader (VENDOR). Percent viral inhibition was calculated using the following equation: y=[…]
Where XQ is the fluorescence intensity measured in a well containing recombinant MPV-GFP1-infected, compound-treated cells and XP is the average fluorescence intensity measured in the wells containing untreated cells infected with recombinant virus. EC50 values were then calculated by non-linear regression using a four parameter curve logistic equation. The curve fit model employed was XLFit Dose Response One Site Model 200: y=(A+(B/(1+((x/C)^D))))
Where A is the minimum y value, B is the maximum y value, C is the log EC50 value, and D is the slope factor. […] EC50 ranges are as follows: A<0.5 μM; B>0.5 μM.

[2] = system: genotype A, "Long" strain RSV; assay: RSV-A assay (CPE protection in Hep-2 cells, ATPlite readout); format: cell-based, Human respiratory syncytial virus (HRSV); settings: human respiratory syncytial virus, MOI 0.1, CPE protection
Procedure, shortened: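 Compound effect on RSV-induced CPE: Hep-2 monolayers, MOI 0.1, duplicate 2-fold titrations, 5-day culture in 10% FBS DMEM. Readout is ATP-based luminescence, normalised to virus-only and no-virus controls, giving EC50.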

[3] = system: HMPV clinical isolate TN/1501/A1; assay: HMPV antiviral assay Method-B (clinical isolate TN/1501/A1 in LLC-MK2 cells, ATP-Lite readout); format: cell-based, Human metapneumovirus (HMPV); settings: human metapneumovirus, LLC-MK2, 144 h, hMPV WT1501 (clinical isolate TN/1501/A1), 6 days
Procedure, shortened: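 LLC-MK2 cells infected in suspension with TN/1501/A1 at MOI 0.014 in serum-free medium with 2 μg/mL TPCK-trypsin (final), incubated 6 days at 37° C. Compounds tested in duplicate, 10-point 3-fold dilutions from 10 μM. Cell health read by ATP-Lite luminescence, normalised to virus-only and cells-only controls; EC50 by four-parameter logistic fit.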

[4] = genotype A “Long” strain RSV, read-out: Human RSV-A (“Long”)
[5] = RSV-A Long strain, read-out: Human RSV-A (“Long”) EC50

EC50 [3] [nM]	EC50 [2, 5] [nM]	SMILES	EC50 [1] [nM]	EC50 [2, 4] [nM]
		C[C@H](COc1ccc(C(=O)NC[C@](O)(c2cc3c(c(-c4ccc(F)cc4)n2)OC[C@]3(C)C(N)=O)C(F)(F)F)cc1OC1CC1)OP(=O)(O)O [Example 3]	> 500	< 200
		COc1cc(C(=O)NC[C@](O)(c2cc3c(c(-c4ccc(F)cc4)n2)OC[C@]3(C)C(N)=O)C(F)(F)F)cc2cc(C)c(CO)nc12 [Example 4]	< 500	< 200
		COc1cc(C(=O)NC[C@](O)(c2cc3c(c(-c4ccc(F)cc4)n2)OC[C@]3(C)C(N)=O)C(F)(F)F)cc2ccnnc12 [Example 6]	< 500	< 200
		C[C@]1(C(N)=O)COc2c1cc([C@@](O)(CNC(=O)c1ccc3nnc(C4CC4)cc3c1)C(F)(F)F)nc2-c1ccc(F)cc1 [Example 7]	< 500	< 200
		COc1cc(C(=O)NC[C@](O)(c2cc3c(c(-c4ccc(F)cc4)n2)OC[C@]3(C)C(N)=O)C(F)(F)F)cc2cc(C)nnc12 [Example 9]	< 500	< 200
		COc1cc(C(=O)NC[C@](O)(c2cc3c(c(-c4ccc(F)c(Cl)c4)n2)OC[C@]3(C)C(N)=O)C(F)(F)F)cc2cc(C)nnc12 [Example 10]	< 500	< 200
		CCc1nc2ccc(C(=O)NC[C@](O)(c3cc4c(c(-c5ccc(F)cc5)n3)OC[C@]4(C)C(N)=O)C(F)(F)F)cc2s1 [Example 11]	> 500	< 200
		C[C@]1(C(N)=O)COc2c1cc([C@@](O)(CNC(=O)c1cc(F)c3nc(N)sc3c1)C(F)(F)F)nc2-c1ccc(F)c(Cl)c1 [Example 12]	< 500	< 200
		C[C@]1(C(N)=O)COc2c1cc([C@@](O)(CNC(=O)c1cc(Cl)c3nc(N)sc3c1)C(F)(F)F)nc2-c1ccc(F)c(Cl)c1 [Example 13]	< 500	< 200
		C[C@]1(C(N)=O)COc2c1cc([C@@](O)(CNC(=O)c1ccc3nc(C4CC4)sc3c1)C(F)(F)F)nc2-c1ccc(F)cc1 [Example 14]	< 500	< 200
		CCc1nc2c(OC)cc(C(=O)NC[C@](O)(c3cc4c(c(-c5ccc(F)cc5)n3)OC[C@]4(C)C(N)=O)C(F)(F)F)cc2s1 [Example 16]	< 500	< 200
		COc1cc(C(=O)NC[C@](O)(c2cc3c(c(-c4ccc(F)cc4)n2)OC[C@]3(C)C(N)=O)C(F)(F)F)cc2sc(C3CC3)nc12 [Example 17]	< 500	< 200
		COc1cc(C(=O)NC[C@](O)(c2cc3c(c(-c4ccc(F)c(Cl)c4)n2)OC[C@]3(C)C(N)=O)C(F)(F)F)cc2sc(C3CC3)nc12 [Example 19]	< 500	< 200
		CCc1nc2c(OC)cc(C(=O)NC[C@](O)(c3cc4c(c(-c5ccc(F)c(Cl)c5)n3)OC[C@]4(C)C(N)=O)C(F)(F)F)cc2s1 [Example 20]	< 500	< 200
		Cn1cc2cc(C(=O)NC[C@](O)(c3cc4c(c(-c5ccc(F)cc5)n3)OC[C@]4(C)C(N)=O)C(F)(F)F)cc(F)c2n1 [Example 22]	< 500	< 200
		COc1cc(C(=O)NC[C@](O)(c2cc3c(c(-c4ccc(F)cc4)n2)OC[C@]3(C)C(N)=O)C(F)(F)F)cc2cn(C3CC3)nc12 [Example 24]	< 500	< 200
		C[C@]1(C(N)=O)COc2c1cc([C@@](O)(CNC(=O)c1cc(F)c3nn(C4CC4)cc3c1)C(F)(F)F)nc2-c1ccc(F)cc1 [Example 25]	< 500	< 200
		C[C@]1(C(N)=O)COc2c1cc([C@@](O)(CNC(=O)c1cc(OC3CC3)c3nn(C4CC4)cc3c1)C(F)(F)F)nc2-c1ccc(F)cc1 [Example 26]	< 500	< 200
		Cn1cc2cc(C(=O)NC[C@](O)(c3cc4c(c(-c5ccc(F)cc5)n3)OC[C@]4(C)C(N)=O)C(F)(F)F)cc(OC3CC3)c2n1 [Example 27]	< 500	< 200

EC50 [3] [nM]	EC50 [2, 5] [nM]	SMILES	EC50 [1] [nM]	EC50 [2, 4] [nM]
		COc1cc(C(=O)NC[C@](O)(c2cc3c(c(-c4ccc(F)c(Cl)c4)n2)OC[C@]3(C)C(N)=O)C(F)(F)F)cc2cn(C3CC3)nc12 [Example 28]	< 500	< 200
		C[C@]1(C(N)=O)COc2c1cc([C@@](O)(CNC(=O)c1cc(F)c3nn(C4CC4)cc3c1)C(F)(F)F)nc2-c1ccc(F)c(Cl)c1 [Example 29]	< 500	< 200
		C[C@]1(C(N)=O)COc2c1cc([C@@](O)(CNC(=O)c1cc(OC3CC3)c3nn(C4CC4)cc3c1)C(F)(F)F)nc2-c1ccc(F)c(Cl)c1 [Example 30]	< 500	< 200
		COc1cc(C(=O)NC[C@](O)(c2cc3c(c(-c4ccc(F)c(Cl)c4)n2)OC[C@]3(C)C(N)=O)C(F)(F)F)cc2cc(C3CC3)nn12 [Example 32]	< 500	< 200
		C[C@]1(C(N)=O)COc2c1cc([C@@](O)(CNC(=O)c1ccc3c(c1)CN(C1CC1)C3=O)C(F)(F)F)nc2-c1ccc(F)cc1 [Example 34]	> 500	< 200
		COc1cc(C(=O)NC[C@](O)(c2cc3c(c(-c4ccc(F)cc4)n2)OC[C@]3(C)C(N)=O)C(F)(F)F)cc2cn(C(F)F)nc12 [Example 40]	< 500	< 200
		C[C@]1(C(N)=O)COc2c1cc([C@@](O)(CNC(=O)c1ccc3nn(C(F)F)cc3c1)C(F)(F)F)nc2-c1ccc(F)cc1 [Example 41]	< 500	< 200
		C[C@]1(C(N)=O)COc2c1cc([C@@](O)(CNC(=O)c1cc(Cl)c3nn(C(F)F)cc3c1)C(F)(F)F)nc2-c1ccc(F)cc1 [Example 42]	< 500	< 200
		C[C@]1(C(N)=O)COc2c1cc([C@@](O)(CNC(=O)c1cc(F)c3nn(C(F)F)cc3c1)C(F)(F)F)nc2-c1ccc(F)cc1 [Example 43]	< 500	< 200
> 500	> 200	COc1cc(C(=O)NC[C@@](O)(c2cc3c(c(-c4c(F)cccc4F)n2)OC[C@]3(C)C(N)=O)C(F)(F)F)cc2cn(C3CC3)nc12 [Example 1232]		
> 500	< 200	COc1cc(C(=O)NC[C@](O)(c2cc3c(c(-c4c(F)cccc4F)n2)OC[C@]3(C)C(N)=O)C(F)(F)F)cc2cn(C3CC3)nc12 [Example 1233]		
> 500	> 200	COc1cc(C(=O)NC[C@@](O)(c2cc3c(c(-c4c(F)cc(F)cc4Cl)n2)OC[C@]3(C)C(N)=O)C(F)(F)F)cc2cn(C3CC3)nc12 [Example 1234]		
< 500	< 200	COc1cc(C(=O)NC[C@](O)(c2cc3c(c(-c4c(F)cc(F)cc4Cl)n2)OC[C@]3(C)C(N)=O)C(F)(F)F)cc2cn(C3CC3)nc12 [Example 1235]		
< 500	< 200	COc1cc(C(=O)NC[C@](O)(c2cc3c(c(-c4ccccc4Cl)n2)OC[C@]3(C)C(N)=O)C(F)(F)F)cc2cn(C3CC3)nc12 [Example 1248]		
> 500	> 200	COc1cc(C(=O)NC[C@](O)(c2cc3c(c(-c4ccc(-c5ccccc5)cc4)n2)OC[C@]3(C)C(N)=O)C(F)(F)F)cc2cn(C3CC3)nc12 [Example 1249]		
> 500	< 200	COc1cc(C(=O)NC[C@](O)(c2cc3c(c(-c4ccccc4-c4ccccc4)n2)OC[C@]3(C)C(N)=O)C(F)(F)F)cc2cn(C3CC3)nc12 [Example 1250]		
> 500	> 200	COc1cc(C(=O)NC[C@](O)(c2cc3c(c(-c4cccc(-c5ccccc5)c4)n2)OC[C@]3(C)C(N)=O)C(F)(F)F)cc2cn(C3CC3)nc12 [Example 1251]		
> 500	> 200	COc1cc(C(=O)NC[C@](O)(c2cc3c(c(N4CCOCC4)n2)OC[C@]3(C)C(N)=O)C(F)(F)F)cc2cn(C3CC3)nc12 [Example 1269]		
